Test results as given in the NIST ThermoML archive (doi:10.1016/j.jct.2010.11.001).
± gives the expanded uncertainty stated by the source.

Settings: Liquid, Closed cell (Static) method

FCC(F)(F)F [1,1,1,2-tetrafluoroethane]
Settings | vapor or sublimation pressure [kPa]
243.14 K | 84.1 ± 2
245.14 K | 92.4 ± 2
247.14 K | 101.4 ± 2
249.15 K | 111.1 ± 2
251.16 K | 121.4 ± 2
253.15 K | 132.5 ± 2
255.14 K | 144.3 ± 2
257.16 K | 157.1 ± 2
259.17 K | 170.6 ± 2
261.16 K | 185 ± 2
263.14 K | 200.2 ± 2
265.13 K | 216.4 ± 2
267.13 K | 233.7 ± 2
269.14 K | 252.1 ± 2
271.14 K | 271.6 ± 2
273.13 K | 292.1 ± 2.1
275.13 K | 313.9 ± 2.1
277.16 K | 337.2 ± 2.1
279.16 K | 361.5 ± 2.1
281.16 K | 387.3 ± 2.1
283.17 K | 414.3 ± 2.1
285.14 K | 442.1 ± 2.1
287.15 K | 472.3 ± 2.1
289.14 K | 503.4 ± 2.2
291.14 K | 536.3 ± 2.2
293.14 K | 570.9 ± 2.2

CCC [propane]
Settings | vapor or sublimation pressure [kPa]
233.22 K | 111.3 ± 2
235.21 K | 121.3 ± 2
237.18 K | 131.7 ± 2
239.2 K | 143.2 ± 2
241.22 K | 155.4 ± 2
243.21 K | 168.2 ± 2
245.26 K | 182.1 ± 2
247.13 K | 195.6 ± 2
249.14 K | 211.1 ± 2
251.14 K | 227.4 ± 2
253.14 K | 244.5 ± 2
255.14 K | 262.5 ± 2
257.13 K | 281.5 ± 2.1
259.15 K | 301.8 ± 2.1
261.12 K | 322.7 ± 2.1
263.15 K | 345.3 ± 2.1
265.14 K | 368.6 ± 2.1
267.14 K | 393.2 ± 2.1
269.14 K | 419 ± 2.1
271.14 K | 446.1 ± 2.1
273.14 K | 474.3 ± 2.1
275.14 K | 503.9 ± 2.1
277.14 K | 535 ± 2.2
279.15 K | 567.4 ± 2.2
281.15 K | 601.4 ± 2.2
283.15 K | 636.7 ± 2.2
285.15 K | 673.5 ± 2.3
287.14 K | 711.8 ± 2.3
289.15 K | 752 ± 2.3
291.16 K | 793.7 ± 2.3
293.15 K | 836.8 ± 2.4
